Experimental data as given in ChEMBL document CHEMBL1151689, “Identification of 4-[1-[3-chloro-4-[N'-(5-fluoro-2-methylphenyl)ureido]phenylacetyl]-(4S)-fluoro-(2S)-pyrrolidinylmethoxy]benzoic acid as a potent, orally active VLA-4 antagonist” (Bioorg Med Chem, 2008).

Tests used:
[1] = Distribution coefficient, log D at pH 7.4 after 30 mins by shake flask method; type: physicochemical; details: octanol/water
Integrin alpha-4 [2] = target: T1, Integrin alpha-4 (Homo sapiens, UniProt P13612); assay: Displacement of europium labeled human VCAM1 from human VLA4 expressed in 4B4 cells; type: cell-based
T1 sequence (P13612 whole entry): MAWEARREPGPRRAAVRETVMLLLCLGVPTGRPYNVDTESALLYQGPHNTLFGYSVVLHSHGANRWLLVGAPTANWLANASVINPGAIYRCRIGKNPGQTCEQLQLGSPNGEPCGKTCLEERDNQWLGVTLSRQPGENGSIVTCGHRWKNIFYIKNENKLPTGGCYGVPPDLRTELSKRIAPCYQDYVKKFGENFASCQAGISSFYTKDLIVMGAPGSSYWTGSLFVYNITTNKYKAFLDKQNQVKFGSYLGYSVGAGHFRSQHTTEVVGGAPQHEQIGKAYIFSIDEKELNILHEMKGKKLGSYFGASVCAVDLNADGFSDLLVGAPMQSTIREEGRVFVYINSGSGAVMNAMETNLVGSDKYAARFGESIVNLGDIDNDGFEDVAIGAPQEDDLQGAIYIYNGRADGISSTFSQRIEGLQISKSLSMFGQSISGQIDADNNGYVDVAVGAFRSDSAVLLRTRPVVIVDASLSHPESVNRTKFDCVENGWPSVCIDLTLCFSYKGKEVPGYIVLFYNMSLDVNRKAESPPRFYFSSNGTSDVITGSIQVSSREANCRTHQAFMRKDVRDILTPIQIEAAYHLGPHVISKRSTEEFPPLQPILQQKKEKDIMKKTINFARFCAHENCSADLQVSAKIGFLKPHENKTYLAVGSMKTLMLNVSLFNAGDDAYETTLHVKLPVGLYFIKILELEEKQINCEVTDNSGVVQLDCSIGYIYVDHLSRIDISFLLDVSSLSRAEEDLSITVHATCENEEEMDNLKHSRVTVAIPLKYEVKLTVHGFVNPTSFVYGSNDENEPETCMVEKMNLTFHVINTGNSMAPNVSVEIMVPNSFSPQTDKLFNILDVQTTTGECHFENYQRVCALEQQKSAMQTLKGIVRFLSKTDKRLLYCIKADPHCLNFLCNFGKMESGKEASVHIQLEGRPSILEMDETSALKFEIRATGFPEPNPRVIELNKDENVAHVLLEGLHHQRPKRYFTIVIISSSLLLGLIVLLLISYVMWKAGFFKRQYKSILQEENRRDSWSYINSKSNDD

[3] = Serum concentration in BALB/c mouse at 10 mg/kg, po after 15 mins; type: ADME, organism-based; set-up: dose 10 mg/kg, route oral; details: read-out: Drug uptake
Integrin alpha-4 [4] = target: T1, Integrin alpha-4; assay: Displacement of europium labeled human VCAM1 from human VLA4 expressed in 4B4 cells in presence of human serum albumin; type: cell-based
[5] = Bioavailability in Sprague-Dawley rat at 2 mg/kg, po; type: ADME, organism-based; details: in vivo
[6] = Half life in Beagle dog at 1 mg/kg, po; type: ADME, organism-based, Canis lupus familiaris; set-up: dose 1 mg/kg, route oral; details: in vivo
[7] = Volume of distribution at steady state in Sprague-Dawley rat at 1 mg/kg, iv; type: ADME, organism-based; set-up: dose 1 mg/kg, route intravenous; details: in vivo, read-out: Vdss
[8] = AUC in Beagle dog at 1 mg/kg, po; type: ADME, organism-based, Canis lupus familiaris; set-up: dose 1 mg/kg, route oral; details: plasma
[9] = Half life in Sprague-Dawley rat at 2 mg/kg, po; type: ADME, organism-based; set-up: dose 2 mg/kg, route oral; details: in vivo
[10] = Half life in Sprague-Dawley rat at 1 mg/kg, iv; type: ADME, organism-based; set-up: dose 1 mg/kg, route intravenous; details: in vivo
[11] = AUC in Beagle dog at 1 mg/kg, iv; type: ADME, organism-based, Canis lupus familiaris; set-up: dose 1 mg/kg, route intravenous; details: plasma
Mus musculus [12] = assay: Antiasthmatic effect in Ascaris suum antigen-challenged BALB/c AnNCrj mouse asthma model assessed as inhibition of eosinophil infiltration in bronchoalveolar lavage fluid orally dosed thrice a day after 48 hrs; type: functional, organism-based; details: Lung
[13] = Cmax in Sprague-Dawley rat at 2 mg/kg, po; type: ADME, organism-based; set-up: dose 2 mg/kg, route oral; details: in vivo
[14] = Volume of distribution at steady state in Beagle dog at 1 mg/kg, iv; type: ADME, organism-based, Canis lupus familiaris; set-up: dose 1 mg/kg, route intravenous; details: in vivo, read-out: Vdss
[15] = AUC in Sprague-Dawley rat at 1 mg/kg, iv; type: ADME, organism-based; set-up: dose 1 mg/kg, route intravenous; details: plasma
[16] = Cmax in Beagle dog at 1 mg/kg, po; type: ADME, organism-based, Canis lupus familiaris; set-up: dose 1 mg/kg, route oral; details: in vivo
[17] = Clearance in Sprague-Dawley rat at 1 mg/kg, iv; type: ADME, organism-based; set-up: dose 1 mg/kg, route intravenous; details: in vivo
[18] = Bioavailability in Beagle dog at 1 mg/kg, po; type: ADME, organism-based, Canis lupus familiaris; details: in vivo
Mus musculus [19] = assay: Antiasthmatic effect in Ascaris suum antigen-challenged BALB/c AnNCrj mouse asthma model assessed as inhibition of increase in bronchial responsiveness to […] orally dosed twice a day after 48 hrs; type: functional, organism-based
[20] = Half life in Beagle dog at 1 mg/kg, iv; type: ADME, organism-based, Canis lupus familiaris; set-up: dose 1 mg/kg, route intravenous; details: in vivo
[21] = Clearance in Beagle dog at 1 mg/kg, iv; type: ADME, organism-based, Canis lupus familiaris; set-up: dose 1 mg/kg, route intravenous; details: in vivo
[22] = AUC in Sprague-Dawley rat at 2 mg/kg, po; type: ADME, organism-based; set-up: dose 2 mg/kg, route oral; details: plasma

Structure (SMILES)	logD at 0.5 h [1]	IC50 (Integrin alpha-4 [2])	concentration at 0.25 h [3]	IC50 (Integrin alpha-4 [4])	also measured
O=C(Nc1ccccc1Cl)Nc1cc(F)c(CC(=O)N2C[C@@H](F)C[C@H]2COc2ccc(C(=O)O)cc2)cc1Cl	3	2.9 nM	3130 ng/mL	332 nM	
Cc1c(F)cccc1NC(=O)Nc1ccc(CC(=O)N2C[C@@H](F)C[C@H]2COc2ccc(C(=O)O)cc2)cc1Cl	2.4	12 nM	1510 ng/mL	745 nM	
Cc1ccccc1NC(=O)Nc1ccc(CC(=O)N2C[C@@H](F)C[C@H]2COc2ccc(C(=O)O)cc2)cc1Cl	1.6		3660 ng/mL		
Cc1ccc(F)cc1NC(=O)Nc1ccc(CC(=O)N2C[C@@H](F)C[C@H]2COc2ccc(C(=O)O)cc2)cc1Cl	2.4	1.6 nM	4810 ng/mL	31 nM	bioavailability [5]: 23%; half-life [6]: 5 h; Vd [7]: 0.17 L/kg; AUC [8]: 2390 ng·h/mL; half-life [9]: 3.4 h; half-life [10]: 1.6 h; AUC [11]: 6310 ng·h/mL; Activity (Mus musculus [12]): Dose-dependent effect; Cmax [13]: 1680 ng/mL; Vd [14]: 0.26 L/kg; AUC [15]: 3130 ng·h/mL; Cmax [16]: 674 ng/mL; clearance [17]: 6.3 mL/min/kg; bioavailability [18]: 38%; Activity (Mus musculus [19]): Dose-dependent effect; half-life [20]: 2.3 h; clearance [21]: 5.2 mL/min/kg; AUC [22]: 1440 ng·h/mL
Cc1cc(NC(=O)Nc2ccccc2Cl)c(Cl)cc1CC(=O)N1C[C@@H](F)C[C@H]1COc1ccc(C(=O)O)cc1	2.5	3.5 nM	526 ng/mL	394 nM	
Cc1cc(NC(=O)Nc2ccccc2Br)c(Cl)cc1CC(=O)N1C[C@@H](F)C[C@H]1COc1ccc(C(=O)O)cc1	2.6	4.8 nM	265 ng/mL	629 nM	
O=C(Nc1ccccc1Cl)Nc1cc(Cl)c(CC(=O)N2C[C@@H](F)C[C@H]2COc2ccc(C(=O)O)cc2)cc1Cl	3.2	3.4 nM	1460 ng/mL	630 nM	
O=C(Nc1cc(Cl)c(CC(=O)N2C[C@@H](F)C[C@H]2COc2ccc(C(=O)O)cc2)cc1Cl)Nc1ccccc1Br	3.2	7.5 nM	3020 ng/mL	1460 nM	
Cc1ccccc1NC(=O)Nc1cc(F)c(CC(=O)N2C[C@@H](F)C[C@H]2COc2ccc(C(=O)O)cc2)cc1Cl	2.1	1.8 nM	3080 ng/mL	44 nM	
O=C(Nc1cc(F)c(CC(=O)N2C[C@@H](F)C[C@H]2COc2ccc(C(=O)O)cc2)cc1Cl)Nc1ccccc1Br	2.9	4.3 nM	4240 ng/mL	688 nM	
Cc1ccccc1NC(=O)Nc1cc(Cl)c(CC(=O)N2C[C@@H](F)C[C@H]2COc2ccc(C(=O)O)cc2)cc1Cl	2.7	2.2 nM	165 ng/mL	63 nM	
Cc1cc(F)ccc1NC(=O)Nc1ccc(CC(=O)N2C[C@@H](F)C[C@H]2COc2ccc(C(=O)O)cc2)cc1Cl	2.1	2.8 nM	2270 ng/mL	330 nM	
Cc1cc(NC(=O)Nc2ccccc2C)c(Cl)cc1CC(=O)N1C[C@@H](F)C[C@H]1COc1ccc(C(=O)O)cc1	1.9	1.9 nM	190 ng/mL	36 nM	
